We go through one compound from patent US8679478B2, “Methods of lysosomal storage disease therapy” (Duke University, priority 2010, dated 2014).

What all share (type): in vivo, mouse
In experiment [1] the test system is immune tolerant GAA-KO mice. Briefly: Wire hang testing, ERT plus β2 agonist. The conditions noted are these: clenbuterol plus ERT v. ERT alone. How it is done:
GAA-KO mice were administered four weekly doses of rhGAA (20 mg/kg), and treated with medium dose clenbuterol (n=7), albuterol (n=4) or untreated (n=6 or 3). […] Mean+/−standard deviation are shown. P values indicate statistically significant differences (lines).
Two β2 agonists were evaluated in combination with ERT, clenbuterol and albuterol. The dose of clenbuterol was reduced 5-fold from the concentration used in Example 4, to 6 mg/l in drinking water, while albuterol was evaluated at the higher dose (30 mg/l in drinking water). Groups of 3 month-old immune tolerant GAA-KO mice (Raben et al., Human Mol. Genet., 2001, 10:2039-2047) were treated with four weekly doses of rhGAA (20 mg/kg body weight), with or without concurrent β2 agonist treatment.
Mice were sacrificed 7 days after the last injection. Selected tissues were collected for GAA enzyme activity and glycogen content analyses. […] GAA activity and glycogen content analyses, Rotarod testing, and Western blot detection of CI-MPR was performed essentially as described (Koeberl et al., Mol. Genet. Metab., 2011, 103:107-112. Wire hang testing was performed with a 0.5 cm mesh hardware cloth fixed to an 8 by 10 inch frame. Mice were placed on the wire mesh, which was slowly inverted 6 inches over a cage containing paper bedding. The latency, or time until the mouse fell into the cage, was recorded.

For experiment [2], the system named is immune tolerant GAA-KO mice. As to the kind of experiment: GAA activity in tissues, ERT plus β2 agonist (Example 6). On the procedure:
Male GAA-KO mice were administered four weekly doses of 20 mg/kg body weight of rhGAA and sacrificed one week following the last injection. Groups of mice were treated with clenbuterol (n=6), albuterol (n=4) or untreated (n=6). Mice were euthanized for tissue analysis 5 weeks after initiation of ERT.
Cerebral and cerebellar hemispheres were analyzed 5 weeks following the initiation of ERT. Groups of mice were treated with clenbuterol (n=6), albuterol (n=4) or untreated (n=6).
Two β2 agonists were evaluated in combination with ERT, clenbuterol and albuterol. […] Groups of 3 month-old immune tolerant GAA-KO mice (Raben et al., Human Mol. Genet., 2001, 10:2039-2047) were treated with four weekly doses of rhGAA (20 mg/kg body weight), with or without concurrent β2 agonist treatment.
Mice were sacrificed 7 days after the last injection. Selected tissues were collected for GAA enzyme activity and glycogen content analyses. All animal procedures were done in accordance with Duke University Institutional Animal Care and Use Committee-approved guidelines. GAA activity and glycogen content analyses, Rotarod testing, and Western blot detection of CI-MPR was performed essentially as described (Koeberl et al., Mol. Genet. Metab., 2011, 103:107-112. Wire hang testing was performed with a 0.5 cm mesh hardware cloth fixed to an 8 by 10 inch frame. Mice were placed on the wire mesh, which was slowly inverted 6 inches over a cage containing paper bedding. The latency, or time until the mouse fell into the cage, was recorded.

The test system of experiment [3] is GAA-KO mice. As to the kind of experiment: Rotarod testing, ERT (rhGAA) plus clenbuterol. Particulars: rhGAA 20 mg/kg weekly x4 plus clenbuterol v. ERT alone; male mice; p=0.04 at 1 week. On the procedure:
(§1) GAA-KO mice were administered four weekly doses of rhGAA (20 mg/kg), and treated with clenbuterol (n=5) or ERT alone (n=5). […] Mean+/−standard deviation are shown. Statistically significant differences indicated (*=p<0.05; **=p<0.01).
For in vivo analysis of AAV vectors, stocks were administered intravenously (via the retroorbital sinus) in 3 month-old and 15 month-old GAA-KO mice, and to 3 month-old tolerant GAA-KO and DKO mice. Clenbuterol (30 μg/ml) was administered to groups of 3 month-old vector-injected and mock-injected male GAA-KO mice in drinking water for 28 days. At the indicated time points post-injection, tissue samples were obtained and processed as described below. All animal procedures were done in accordance with Duke University Institutional Animal Care and Use Committee-approved guidelines. GAA activity and glycogen content were analyzed essentially as described (Sun et al., Mol. Ther., 2005, 11:889-898; Sun et al., Mol. Ther., 2005, 11: 57-65). Rotarod testing was performed essentially as described (Sun, B. D. et al. 2005). Western blotting of hGAA was performed essentially as described (Amalfitano et al., Proc. Natl. Acad. Sci. USA, 1999, 96: 8861-8866) using the hGAA monoclonal antibody (courtesy of Genzyme Corp., Framingham, Mass.) and the CI-MPR antibody (catalog number GTX28093; Gene Tex, Irvine, Calif.). […]
(The rotarod test checks motor coordination on a turning rod.)

In experiment [4] the test system is GAA-KO mice. As to the kind of experiment: Glycogen content in muscles, ERT plus clenbuterol or albuterol. The conditions noted are these: for glycogen content for quadriceps: p<0.001; for Glycogen content: ERT plus clenbuterol v. ERT alone. On the procedure:
FIG. 8A-8C depicts increased GAA uptake and increased glycogen clearance in GAA-KO mice following clenbuterol treatment and ERT. […] GAA-KO mice were administered four weekly doses of rhGAA (20 mg/kg), and treated with clenbuterol (n=6) or untreated (n=5). […] Mean+/−standard deviation are shown. Statistically significant differences indicated (*=p<0.05; **=p<0.01).
GAA-KO mice were treated with weekly rhGAA (20 mg/kg): with medium clenbuterol, […] (n=6), with low clenbuterol, 1.3 mg/ml (n=6), with albuterol 30 mg/ml (n=4), or without drug treatment (n=3). Drugs were administered in the drinking water. Mean+/−s.d. shown. Statistically significant differences indicated (*=p<0.05; **=p<0.01).
For in vivo analysis of AAV vectors, stocks were administered intravenously (via the retroorbital sinus) in 3 month-old and 15 month-old GAA-KO mice, and to 3 month-old tolerant GAA-KO and DKO mice. Clenbuterol (30 μg/ml) was administered to groups of 3 month-old vector-injected and mock-injected male GAA-KO mice in drinking water for 28 days. At the indicated time points post-injection, tissue samples were obtained and processed as described below. All animal procedures were done in accordance with Duke University Institutional Animal Care and Use Committee-approved guidelines. GAA activity and glycogen content were analyzed essentially as described (Sun et al., Mol. Ther., 2005, 11:889-898; Sun et al., Mol. Ther., 2005, 11: 57-65). Rotarod testing was performed essentially as described (Sun, B. D. et al. 2005). Western blotting of hGAA was performed essentially as described (Amalfitano et al., Proc. Natl. Acad. Sci. USA, 1999, 96: 8861-8866) using the hGAA monoclonal antibody (courtesy of Genzyme Corp., Framingham, Mass.) and the CI-MPR antibody (catalog number GTX28093; Gene Tex, Irvine, Calif.).
(§2) The efficacy from gene therapy was increased by β2 agonist stimulation from clenbuterol treatment, and this benefit might be expected to affect ERT in Pompe disease, as well. Therefore, groups of 3 month-old GAA-KO mice were treated with four weekly doses of rhGAA (20 mg/kg), with or without concurrent clenbuterol treatment.

Experiment [5] relates to GAA-KO mice. As to the kind of experiment: Weight gain, ERT plus clenbuterol. The conditions noted are these: ERT plus clenbuterol v. ERT alone; male mice; p<0.05 at weeks 1-3. How it is done: as §1, §2

SMILES strings stand for the structures.

With `CC(C)(C)NCC(O)c1cc(Cl)c(N)c(Cl)c1` (centres unmarked) [clenbuterol], in experiment [1], the Wire hang latency result was “increased significantly”. Besides, the GAA activity entry in experiment [2] (cerebellum, 5 weeks after initiation of ERT, clenbuterol p=0.08, albuterol p=0.09) is “trend toward increased GAA activity”. In addition, the “GAA activity in tissues with reduced glycogen content” value in experiment [2] (β2 agonist plus ERT v. ERT alone) was “unchanged”. Further, the Rotarod latency entry in the experiment with GAA-KO mice [3] was “increased Rotarod latency”. Moreover, the “glycogen content for quadriceps” value in the experiment with GAA-KO mice [4] (ERT plus clenbuterol 1.3 μg/ml (Low) in drinking water) and in the experiment on GAA-KO mice [4] (ERT plus clenbuterol 6 μg/ml (Medium) in drinking water) was “significantly reduced” throughout. The Glycogen content result in the experiment with GAA-KO mice [4] (diaphragm, p=0.0002) is listed as “significantly reduced”; in the experiment with GAA-KO mice [4] (quadriceps, p=0.00002), “significantly reduced”; in the experiment on GAA-KO mice [4] (tibialis anterior, p=0.002), “significantly reduced”. Besides, the glycogen clearance result in the experiment with GAA-KO mice [4] (gastrocnemius, ERT plus clenbuterol) is recorded as “absence of increased glycogen clearance”. The weight gain result with GAA-KO mice [5] is recorded as “increased weight gain”.
